From US20130064913A1, “ANTI-INFLAMMATORY BOTANICAL PRODUCTS FOR THE TREATMENT OF METABOLIC SYNDROME AND DIABETES” (Metaproteomics, LLC, priority 2001, published 2013)
≈ marks a conversion by molar mass, not a printed value. Read-outs that look alike come from different tables or passages of the source. Marks after values point to notes of the source that are not given here.

Tests used:
[1] = system: PGE2 synthesis in LPS-stimulated RAW 264.7 cells; assay: PGE2 inhibition in LPS-stimulated RAW 264.7 murine macrophages (Example 1); format: cell-based; details: for IC50: Mus musculus, RAW264.7; for Relative Potency: category of anti-inflammatory activity based on IC50
[2] = system: LPS-treated 3T3-L1 adipocytes; assay: Adiponectin secretion in LPS/3T3-L1 adipocytes; format: cell-based, murine; details: 100 ng LPS/ml
[3] = system: 3T3-L1 adipocytes; assay: Lipogenesis (Oil Red O / BODIPY) in 3T3-L1 adipocytes; format: cell-based, murine; details: hops compounds 10, 5, 4 or 2 μg/ml, spent hops 50 μg/ml (Example 19)
[4] = system: insulin-resistant 3T3-L1 adipocytes; assay: Adiponectin secretion from insulin-resistant 3T3-L1 adipocytes; format: cell-based, murine; details: for Adiponectin/IL-6: insulin-resistant model
From the text: For two days, the cells were allowed grow to reach confluence. […] Twenty-four hours later, the supernatant medium was sampled for adiponectin determination. […] The adiponectin secreted into the medium was quantified using the Mouse Adiponectin Quantikine® Immunoassay kit with no modifications (R&D Systems, Minneapolis, Minn.). […] Substituting {relative adiponectin secretion/[concentration]} for the independent variable v/[S] and {relative adiponectin secretion} for the dependant variable {v}, produced a relationship of the form y=mx+b. Maximum adiponectin secretion relative to the solvent control was estimated from the y-intercept, while the concentration of test material necessary for half maximal adiponectin secretion was computed from the negative value of the slope.

[5] = system: NF-κB; assay: NF-κB DNA binding of nuclear extracts (TransAM NF-κB kit) from LPS-stimulated RAW 264.7 cells; format: cell-based, murine; details: LPS 4 h; MgRIAA 55 and 14 μg/ml, parthenolide 80 μM, LY294002 25 μM
Experimental: Nuclear extracts were prepared essentially as described by Dignam, et al [Nucl Acids Res 11:1475-1489, (1983)]. […] Cells were then scraped into a clean tube and processed through three cycles of freeze/thaw. The supernatant layer following centrifugation at 10,000×g for 5 min at 4° C. was the cytoplasmic fraction. […] The nuclear extract fraction was collected as the supernatant layer following centrifugation at 10,000×g for […] at 4° C. NF-kB DNA binding of the nuclear extracts was assessed using the TransAM NF-κB kit from Active Motif (Carlsbad, Calif.) as per manufacturer's instructions. […] Protein concentration was measured (Bio-Rad assay) and 10 μg of nuclear protein extracts were assayed in duplicate.

[6] = system: TNFα-treated 3T3-L1 adipocytes; assay: IL-6 secretion from TNFα-treated 3T3-L1 adipocytes; format: cell-based, murine; details: Mus musculus, 10 ng TNFα/ml; for inhibition at 1 µg/mL: 1.0 μg/ml
[7] = system: COX-2 protein expression; assay: COX-2 protein expression by Western blot in LPS-stimulated RAW 264.7 cells; format: cell-based, murine; details: 20 hours LPS, versus DMSO solvent control
Experimental: Densitometry was performed using Kodak®software.

[8] = arbitrary category of the median inhibitory concentration, read-out: Relative IC50
[9] = test material added 90 min before LPS, 18 h, read-out: IC50 (PGE2 inhibition)

SMILES: O=c1cc(-c2ccc(O)cc2)oc2cc(O)cc(O)c12 [Apigenin, apigenin]
- IC50 [1]: 2 to 7 µg/mL (≈ 7.4 to 25.9 µM)
- IC50 [1, 8]: 2 to 6 µg/mL (≈ 7.4 to 22.2 µM)
- IC50 [1, 9]: 2.8 µg/mL (≈ 10.4 µM)

SMILES: CC(=O)Oc1ccccc1C(=O)O [Aspirin]
- % Stimulation of adiponectin secretion (maximum) [2]: failed to induce adiponectin secretion

SMILES: COc1ccc2cc3[n+](cc2c1OC)CCc1cc2c(cc1-3)OCO2 [Berberine]
- IC50 [1]: 2 to 7 µg/mL

SMILES: Cc1ccc(-c2cc(C(F)(F)F)nn2-c2ccc(S(N)(=O)=O)cc2)cc1 [Celecoxib, celecoxib]
- % Stimulation of adiponectin secretion (maximum) [2]: failed to induce adiponectin secretion

SMILES: COc1cc(/C=C/C(=O)CC(=O)/C=C/c2ccc(O)c(OC)c2)ccc1O [Curcumin, curcumin]
- IC50 [1]: 2 to 7 µg/mL (≈ 5.43 to 19 µM)
- IC50 [1, 8]: 2 to 6 µg/mL (≈ 5.43 to 16.3 µM)

SMILES: O=c1c(O)c(-c2ccc(O)c(O)c2)oc2cc(O)ccc12 [Fisetin, fisetin]
- IC50 [1]: > 12 µg/mL
- IC50 [1, 8]: > 12 µg/mL
- IC50 [1, 9]: > 12 µg/mL

SMILES: O=c1c(O)c(-c2ccccc2)oc2cc(O)cc(O)c12 [Galangin, galangin]
- IC50 [1]: 0.3 to 1.7 µg/mL (≈ 1.11 to 6.29 µM)
- IC50 [1, 8]: 1 µg/mL (≈ 3.7 µM)
- IC50 [1, 9]: 1.4 µg/mL (≈ 5.18 µM)
- Relative Potency [1]: high

SMILES: O=c1c(-c2ccc(O)cc2)coc2cc(O)cc(O)c12 [Genistein, genistein]
- IC50 [1]: 0.3 to 1.7 µg/mL (≈ 1.11 to 6.29 µM)
- IC50 [1, 8]: 1 µg/mL (≈ 3.7 µM)
- IC50 [1, 9]: 1.7 µg/mL (≈ 6.29 µM)
- Relative Potency [1]: high

SMILES: CC(C)CCC1=C(O)C(C(=O)C(C)C)=C(O)C(CCC(C)C)(CCC(C)C)C1=O [Hexahydrocolupulone]
- adipogenic response, in words [3]: failed to elicit a lipogenic response greater than the solvent controls
- Adiponectin/IL-6 ([4]; 25 μg/ml): 1.36#
- Adiponectin/IL-6 ([4]; 50 μg/ml): 0.60#
- concentration at which maximal adiponectin secretion was observed ([4]; of the four doses tested): 12.5 µg/mL

SMILES: COc1ccc2c(c1)c(CC(=O)O)c(C)n2C(=O)c1ccc(Cl)cc1 [Indomethacin, indomethacin]
- % Stimulation of adiponectin secretion (maximum) [2]: 9%

SMILES: CC(C)Oc1ccc2c(=O)c(-c3ccccc3)coc2c1 [Ipriflavone, ipriflavone]
- IC50 [1]: 2 to 7 µg/mL (≈ 7.13 to 25 µM)
- IC50 [1, 8]: 2 to 6 µg/mL (≈ 7.13 to 21.4 µM)
- IC50 [1, 9]: 6.3 µg/mL (≈ 22.5 µM)

SMILES: O=c1cc(N2CCOCC2)oc2c(-c3ccccc3)cccc12 [LY294002]
- NF-κB DNA binding, in words [5]: modest decrease

SMILES: O=c1cc(-c2ccc(O)c(O)c2)oc2cc(O)cc(O)c12 [Luteolin, luteolin]
- IC50 [1]: 2 to 7 µg/mL (≈ 6.99 to 24.5 µM)
- IC50 [1, 8]: 2 to 6 µg/mL (≈ 6.99 to 21 µM)
- IC50 [1, 9]: 3.9 µg/mL (≈ 13.6 µM)

SMILES: CN(C)C(=N)N=C(N)N [Metformin]
- inhibition at 1 µg/mL [6]: 9%
- inhibition at 5 µg/mL ([6]; 5.0 μg/ml): 4%
- inhibition at 10 µg/mL ([6]; 10 μg/ml): 22%
- inhibition at 50 µg/mL ([6]; 50 μg/ml): 22%

SMILES: O=c1c(O)c(-c2ccc(O)cc2O)oc2cc(O)cc(O)c12 [Morin, morin]
- IC50 [1]: > 12 µg/mL
- IC50 [1, 8]: > 12 µg/mL
- IC50 [1, 9]: > 12 µg/mL

SMILES: O=C1C[C@@H](c2ccc(O)cc2)Oc2cc(O)cc(O)c21 [Naringenin, naringenin]
- IC50 [1]: > 12 µg/mL
- IC50 [1, 8]: > 12 µg/mL
- IC50 [1, 9]: > 12 µg/mL

SMILES: CC1(C)CC[C@]2(C(=O)O)CC[C@]3(C)C(=CC[C@@H]4[C@@]5(C)CC[C@H](O)C(C)(C)[C@@H]5CC[C@]43C)[C@@H]2C1 [Oleanolic acid, oleanolic acid]
- IC50 [1, 8]: 1 µg/mL (≈ 2.19 µM)

SMILES: C=C1C(=O)O[C@H]2[C@H]1CC/C(C)=C/CC[C@@]1(C)O[C@@H]21 [Parthenolide]
- reduction of COX-2 protein expression [7]: 22.5%
- NF-κB DNA binding, in words [5]: significant reduction

SMILES: CCc1ccc(CCOc2ccc(CC3SC(=O)NC3=O)cc2)nc1 (centres unmarked) [Pioglitazone]
- Adiponectin Index (maximum stimulation) ([2]; relative to LPS control): 1.12*

SMILES: O=c1c(O)c(-c2ccc(O)c(O)c2)oc2cc(O)cc(O)c12 [Quercetin]
- IC50 [1]: 0.3 to 1.7 µg/mL (≈ 0.993 to 5.62 µM)
- IC50 [1, 8]: 1 µg/mL (≈ 3.31 µM)
- IC50 [1, 9]: 0.82 µg/mL (≈ 2.71 µM)
- Relative Potency [1]: high

SMILES: Oc1ccc(C=Cc2cc(O)cc(O)c2)cc1 [Resveratrol, resveratrol]
- IC50 [1]: 2 to 7 µg/mL (≈ 8.76 to 30.7 µM)

SMILES: O=C(O)c1ccccc1O [Salicylic acid, salicylic acid]
- % Stimulation of adiponectin secretion (maximum) [2]: failed to induce adiponectin secretion

SMILES: Cc1c(C)c2c(c(C)c1O)CCC(C)(COc1ccc(CC3SC(=O)NC3=O)cc1)O2 (centres unmarked) [Troglitazone]
- inhibition at 1 µg/mL [6]: 34%
- Concentration at maximum stimulation of adiponectin secretion [2]: 0.625 µg/mL
